# Where two headings read alike, the source gives them in different places. No end group written: not given here.
# Assays:
# [1] = HPLC retention time (measure of peptide hydrophobicity); assay type: physicochemical; details: chromatographic, Waters C8 symmetry hydrophobic column, as described in ref 34; used as indicator of peptide hydrophobicity
# Text: In the membrane-bound LL-37 structure determined by 3D NMR spectroscopy, a hydrophobic gap exists (Figure 1A). The location of a hydrophilic S9 on the hydrophobic surface of LL-37 splits the long helix into two hydrophobic domains (gold sticks). The SK-24 peptide we identified here corresponds to the long hydrophobic domain [26]. The amino acid sequence of SK-24, along with LL-37 and its derived antimicrobial peptides, is depicted in Figure 1B. Peptide parameters, including net charge, hydrophobic content, Boman index, GRAVY, hydrophobicity, and hydrophobic moment of each peptide, were calculated using online tools, such as the APD [8] and HeliQuest (Table 1). Except for the shortest RI-10 (net charge +3), LL-37 and its other derived peptides have net charges +5 or +6, above the average net charge (+3.3) of natural antimicrobial peptides registered in the APD [8, 35, 36]. Overall, the hydrophobic percentages (Pho) of these peptides calculated in the APD are proportional to the hydrophobicity and hydrophobic moment calculated by HeliQuest in Table 1. Of note, LL-37 has the highest net charge (+6) and Boman index but the lowest Pho%, GRAVY, and hydrophobic moment.
# All peptides were chemically synthesized and purified to >95% (Genemed Synthesis, San Antonio, TX, USA). The quality of each peptide was determined based on mass spectrometry (MS) and high-performance liquid chromatography (HPLC). Peptide stock solutions were freshly made by solubilizing in autoclaved distilled water, and their concentrations were quantitated using UV spectroscopy based on the absorbance difference at 215 and 225 nm as described. Peptide retention time was measured on a Waters C8 symmetry hydrophobic column as described. Other chemicals were purchased from Sigma (St. Louis, MO, USA) unless specified.
# [2] = tested on: A. baumannii B28-16 preformed biofilms; assay: Disruption of preformed biofilms (XTT); assay type: cell-based, Acinetobacter baumannii; details: for Biofilm disruption: 72 h preformed biofilms, peptide 64 μM, highest concentration tested; for Disruption of 48 h biofilms: biofilms established for 48 h; for Disruption of 48 h biofilms / Reduction of 24 h biofilms: 24 h treatment; for Reduction of 24 h biofilms: biofilms established in 24 h
# Protocol: (§1) The antibiofilm activities of peptides against the preformed biofilms of A. baumannii B28-16 and S. aureus USA300 LAC were evaluated as follows. Bacteria in the logarithmic growth phase were adjusted to a cell density of 10^5 colony forming unit (CFU)/mL. Two hundred microliter cells were seeded into each well of the 96-well plates. The plates were incubated at 37 °C to allow for the formation of biofilm for 24, 48, and 72 h, respectively. The planktonic cells were then removed, followed by a wash. The biofilms were then treated with 20 µL of 10× two-fold diluted peptides and 180 µL of fresh TSB media for 24 h at 37 °C. Cultures treated with water without peptide served as the positive control, and media treated with water was used as the negative control. To quantify the antibiofilm activity of the peptides, the XTT [2, 3-bis (2-methyloxy-4-nitro-5-sulfophenyl)-2H-tertazolium-5-carboxanilide] assay staining method was used to quantitate the live cells. Absorbance was read at 450 nm using a ChroMate microliter plate reader. The percentage biofilm growth for the peptide was plotted by assuming 100% biofilm growth in untreated bacterial control wells. Data were represented as mean ± standard deviation (SD). The data are statistically significant at p < 0.05. Plots were generated using GraphPad Prism v7 (GraphPad Software, San Diego, CA, USA).
# [3] = tested on: S. aureus USA300; assay type: cell-based, Staphylococcus aureus
# Protocol: (§2) The antibiotic-resistant pathogens used in this study include the Gram-positive bacteria Enterococcus faecium V286-17 and Staphylococcus aureus USA300 LAC and the Gram-negative bacteria Klebsiella pneumoniae E406-17, Acinetobacter baumannii B28-16, Pseudomonas aeruginosa E411-17, and Escherichia coli E423-17. All bacteria were cultivated in tryptic soy broth (TSB) at 37 °C, 220 rpm.
# (§3) The antibacterial activity of peptides was evaluated using a standard broth microdilution protocol with minor modifications. In brief, peptides were made at various concentrations, 10 μL per well in a 96-well polystyrene microplate. Logarithmic phase bacterial cultures (i.e., optical density (OD) at 600 nm ≈ 0.5) were diluted to 0.001 OD, and aliquots of 90 μL were added to each well. Untreated bacterial culture and medium were included as positive and negative controls, respectively. Plates were incubated at 37 °C overnight and read at 630 nm using a ChroMate Microplate Reader (Awareness Technology, Palm City, FL, USA). […] Our previously designed peptide 17BIPHE2 [32] was included as a positive control, and RI-10, a peptide without antibacterial activity in rich media, was utilized as a negative control.
# [4] = tested on: A. baumannii B28-16; assay: Membrane permeabilization (propidium iodide); assay type: cell-based, Acinetobacter baumannii; details: peptide 16 µM; propidium iodide fluorescence, 2 h, PBS, 37 °C
# Protocol: (§4) Membrane permeabilization was evaluated as described. In brief, bacteria were inoculated and grown overnight. A second inoculation was made and let bacteria grow to the exponential phase. Bacteria were then spun, washed, and resuspended in the same volume of PBS. A series of peptide solutions (10×) was made via two-fold dilution in a 96-well plate (10 µL each). All wells were aliquoted with 2 µL of propidium iodide (20 µM), followed by adding 88 µL of S. aureus USA300 or A. baumannii B28-16 (OD600 ~0.11 in PBS). The plate was incubated at 37 °C with continuous shaking at 100 rpm in a FLUOstar Omega microplate reader (BMG Labtech Inc., Cary, NC, USA). Fluorescence was recorded every 5 min for 2 h with excitation and emission wavelengths of 485 and 620 nm. The data were analyzed by the vendor’s software using averaged values from duplicated experiments.
# [5] = tested on: S. aureus USA300 LAC; assay: Membrane depolarization (DiBAC4(3)); assay type: cell-based, Staphylococcus aureus; details: DiBAC4(3) fluorescence; for Membrane depolarization ability (order, words): peptide 8 µM, similar trends at 16 and 32 µM
# Protocol: The experiment was conducted as described. In brief, an overnight culture of S. aureus USA300 LAC was subcultured in a fresh TSB medium and grown to the exponential phase. Cells were spun using centrifugation and washed twice with PBS, and resuspended in twice the volume of PBS containing 25 mM glucose and incubated at 37 °C for 15 min. For membrane depolarization measurements, 500 nM (final concentration) of the dye DiBAC4 (3) (bis-(1,3- dibutylbarbituric acid) trimethine oxonol) (AnaSpec, San Jose, CA, USA) was added and vortexed gently. Aliquots of 90 μL of the energized bacteria solution were loaded to the wells, and the plate was fed into a FLUOstar Omega microplate reader. Fluorescence was read for 20 min at excitation and emission wavelengths of 485 and 520 nm, respectively, to get dye normalization. Then 10 μL of diluted peptide solutions were added and gently mixed. Fluorescence readings were recorded for 40 min, where Triton X-100 (0.1%) was used as a positive control.
# [6] = tested on: A. baumannii B28-16; assay type: cell-based, Acinetobacter baumannii
# Protocol: as §2, §3
# [7] = tested on: E. coli E423-17; assay type: cell-based, Escherichia coli
# Protocol: as §2, §3
# [8] = tested on: E. faecium V284-17; assay type: cell-based, Enterococcus faecium
# [9] = tested on: S. aureus USA300 LAC; assay: Membrane permeabilization (propidium iodide); assay type: cell-based, Staphylococcus aureus; details: peptide 8 µM; propidium iodide fluorescence, 2 h, PBS, 37 °C
# Protocol: as §4
# [10] = tested on: K. pneumoniae E406-17; assay type: cell-based, Klebsiella pneumoniae; details: for MIC: E406-17
# Protocol: as §2, §3
# [11] = tested on: S. aureus USA300 LAC preformed biofilms; assay: Disruption of preformed biofilms (XTT); assay type: cell-based, Staphylococcus aureus; details: for Antibiofilm effect on 24 h preformed biofilms: 24 h preformed biofilms of S. aureus USA300, XTT
# Protocol: as §1
# [12] = tested on: P. aeruginosa E411-17; assay type: cell-based, Pseudomonas aeruginosa; details: for MIC: E411-17
# Protocol: as §2, §3
# [13] = tested on: Human red blood cells; assay: Hemolytic assay; assay type: cell-based; details: 1 h
# Protocol: Human red blood cells (hRBCs, the UNMC Blood Bank) were washed three to five times with saline (Fisher Scientific, Waltham, MA, USA) at 800 g for 10 min each time, until the supernatant was clear. The supernatant was discarded, and hRBCs were suspended in saline at a final density of 2%. Ninety microliters of hRBC suspensions were added to each well of 96-well plates containing 10 µL of 10× serially diluted peptides. After incubation at 37 °C for 1 h, the plates were centrifuged at 1500 rpm for 5 min. About 80 µL of the supernatant was carefully pipetted to a new 96-well microplate and read at 545 nm to measure the amount of hemoglobin released. The positive control was 1% Triton X-100, and the negative control was saline. The percentage of hRBC lysis was calculated based on the hemoglobin released.
# [14] = tested on: S. aureus USA300 LAC preformed biofilms; details: S. aureus USA300 LAC and other clinical strains (USA200, USA400, Mu50); cited from earlier work
# Protocol: Here, we compared the antibiofilm activity of SK-24 with that of GF-17, GI-20, and 17BIPHE2 against the 24 h preformed biofilms of S. aureus USA300. […] Only SK-24 a ...
# [15] = 2% hRBCs in saline, 37 °C, tested 12.5–200 µM
Molecule,tHPLC (HPLC retention time) [1],Biofilm disruption [2],Disruption of 48 h biofilms [2],Reduction of 24 h biofilms [2],MIC [3],"Membrane depolarization ability (order, words) [5]",MIC [6],MIC [7],MIC ([8]; V284-17),Membrane permeation [9],MIC [10],Antibiofilm effect on 24 h preformed biofilms [11],MIC [12],HC50 (50% hemolytic concentration) ([13]; red cells of human),"Disruption of 24 h preformed biofilms (words, found previously) [14]",other results
GIKEFKRIVQRIKDFLRNLV-NH2 [GI-20],12.681 min,30–50%,only worked at 64 μM,dose-dependent manner,2 to 4 µM,GI-20 > 17BIPHE2 > GF-17~SK-24 > LL-37,8 µM,32 µM,2 µM,more powerful,>32 µM,antibiofilm effect in a dose-dependent manner,>32 µM,~ 160 µM,,Membrane permeation [4]: superior to SK-24
CC[C@H](C)[C@H](NC(=O)[C@H](CCCCN)NC(=O)[C@H](CCC(=O)O)NC(=O)[C@H](CCCCN)NC(=O)[C@H](CO)NC(=O)[C@H](CCCCN)NC(=O)[C@H](CCCNC(=N)N)NC(=O)[C@H](Cc1ccccc1)NC(=O)[C@H](Cc1ccccc1)NC(=O)[C@H](CC(=O)O)NC(=O)CNC(=O)[C@H](CC(C)C)NC(=O)[C@@H](N)CC(C)C)C(=O)NCC(=O)N[C@@H](CCCCN)C(=O)N[C@@H](CCC(=O)O)C(=O)N[C@@H](Cc1ccccc1)C(=O)N[C@@H](CCCCN)C(=O)N[C@@H](CCCNC(=N)N)C(=O)N[C@H](C(=O)N[C@H](C(=O)N[C@@H](CCC(N)=O)C(=O)N[C@@H](CCCNC(=N)N)C(=O)N[C@H](C(=O)N[C@@H](CCCCN)C(=O)N[C@@H](CC(=O)O)C(=O)N[C@@H](Cc1ccccc1)C(=O)N[C@@H](CC(C)C)C(=O)N[C@@H](CCCNC(=N)N)C(=O)N[C@@H](CC(N)=O)C(=O)N[C@@H](CC(C)C)C(=O)N[C@H](C(=O)N1CCC[C@H]1C(=O)N[C@@H](CCCNC(=N)N)C(=O)N[C@H](C(=O)N[C@@H](CCC(=O)O)C(=O)N[C@@H](CO)C(=O)O)[C@@H](C)O)C(C)C)[C@@H](C)CC)C(C)C)[C@@H](C)CC [LL-37],12.548 min,,,,,GI-20 > 17BIPHE2 > GF-17~SK-24 > LL-37,,,,,,,,,neither LL-37 nor RI-10 was able to disrupt,"Disruption of preformed biofilms ([2]; biofilms formed for 24, 48 and 72 h, peptide at 8, 16, 32 or 64 μM for 24 h): unable to disrupt; MIC ([8]; E. faecium V284-17, 100% TSB, 37 °C overnight, read at 630 nm): 32 µM; HC50 (50% hemolytic concentration) [13, 15]: ~ 175 µM; Hemolytic activity [13, 15]: no hemolysis below 100 µM; Hemolysis ([13]; peptide 200 µM, 2% hRBCs in saline, 37 °C, read at 545 nm): 70%"
SKEKIGKEFKRIVQRIKDFLRNLV-NH2 [SK-24],12.291 min,~ 70%,dose-dependent biofilm disruption,dose-dependent manner,,GI-20 > 17BIPHE2 > GF-17~SK-24 > LL-37,,16 µM,,weakly permeated,≥32 µM,antibiofilm effect in a dose-dependent manner,>32 µM,greater than 200 µM,,"Membrane depolarization, dose dependence ([5]; peptide 4, 8, 16 and 32 µM): dose-dependent manner; Effect on growth at 32 μM ([10]; K. pneumoniae E406-17, peptide 32 μM): poor effect; Staphylococcal biofilm remaining (reduced to) ([11]; 24 h preformed biofilms, peptide 32 μM, relative to untreated control = 100%): ~ 25%; Effect on growth at 32 μM ([12]; P. aeruginosa E411-17, peptide 32 μM): poor effect"
GFKRIVQRIKDFLRNLV-NH2 (C-terminus assumed) [GF-17],12.197 min,30–50%,dose-dependent biofilm disruption,dose-dependent manner,2 to 4 µM,GI-20 > 17BIPHE2 > GF-17~SK-24 > LL-37,4 µM,16 µM,2 µM,,>32 µM,antibiofilm effect in a dose-dependent manner,16 µM,~ 175 µM,highly effective,

# Reference: PMC8703873, “Structure and Activity of a Selective Antibiofilm Peptide SK-24 Derived from the NMR Structure of Human Cathelicidin LL-37” (Pharmaceuticals, 2021)
